Assay [1] concerns E. coli, P. aeru, S. aureus, A. nigar, Candida. Nature of the assay: Antimicrobial test (preservative effectiveness test, USP), microorganism type not specified. The class given is cell-based. Particulars: for Enhancement of antimicrobial activity (in words): solutions containing benzalkonium chloride, α-cyclodextrin, and EDTA-2Na, alone or in admixture. The method, then: Using bacteria Escherichia coli (E. coli), Pseudomonas aeruginosa (P. aeru), and Stapyrococcus aureus (S. aureus) and fungi Aspergillus nigar (A. nigar) and Candida albicans (Candida) as infectious microorganisms, a preservative effectiveness test was carried out according to the Pharmacopoeia of the United States.
++: microorganisms died within 5 days
+: microorganisms died in 6-10 days
-:microorganisms died in 11-15 days or over 15 days
Solutions were prepared in accordance with the formulation shown in Experiment 1 in a conventional manner as used in the preparation of eye drops while the amount of disodium ethylenediaminetetraacetate (EDTA-2Na) blended was in the range of 0.002 to 0.3%. The solutions were subject to the antimicrobial test of Experiment 3 and evaluated for antimicrobial activity according to the same criterion as above.
Solutions of the following formulation were prepared in a conventional manner as used in the preparation of eye drops.
The solutions were subject to the antimicrobial test of Experiment 3 and evaluated for antimicrobial activity according to the same criterion as above.
Solutions of the formulation shown in Table 7 were prepared to a total amount of 1,000 g in a conventional manner as used in the preparation of eye drops. […] The ophthalmic solutions were subject to the same tests as in Experiments 1 and 3. In the test of Experiment 3, the ophthalmic solutions were evaluated for antimicrobial activity according to the same criterion as before.

Assay [2] can be described thus: Benzalkonium chloride adsorption test (soft contact lens Menicon Soft 72). The class given is physicochemical. Particulars: α-cyclodextrin 0%; benzalkonium chloride 0.01%; 25° C., 24 hours. How it is done:
(§1) A test was conducted to examine the inhibition of benzalkonium chloride adsorption to soft contact lenses. Solutions of the following formulation were prepared in a conventional manner as used in the preparation of eye drops.
(§2) The percent inhibition of benzalkonium chloride adsorption to commercially available soft contact lenses was determined by the following test.
(§3) Benzalkonium chloride adsorption test A 30-ml vial was charged with 10 ml of the solution and a soft contact lens was immersed therein. In a constant temperature tank at 25° C., the vial was shaken for 24 hours. After the contact lens was removed from the vial, the concentration of benzalkonium chloride in the solution was quantitatively determined by high performance liquid chromatography. A percent inhibition of adsorption was calculated according to the following formula.
(§4) As a control, the above procedure was repeated except that no contact lens was immersed.
(§5) Inhibition of adsorption (%)=(concentration of benzalkonium chloride in sample solution)/(concentration of benzalkonium chloride in control solution)×100
(§6) Note that Seequence, Nichicon Soft and Menicon Soft are trademarks of soft contact lenses commercially available from Bausch & Lomb, Nihon Contact K.K., and Menicon K.K., respectively.

Assay [3] can be described thus: Benzalkonium chloride adsorption test (soft contact lens Seequence). Particulars: α-cyclodextrin 0%; benzalkonium chloride 0.01%; 25° C., 24 hours. The class given is physicochemical. The method, then: as §1, §2, §3, §4, §5, §6
The nature of assay [4]: Benzalkonium chloride adsorption test (soft contact lens Nichicon Soft μ). The class given is physicochemical. Particulars: α-cyclodextrin 0%; benzalkonium chloride 0.01%; 25° C., 24 hours. How it is done:
as §1, §2, §3, §4, §5, §6

Turning to `O=C([O-])CN(CCN(CC(=O)O)CC(=O)O)CC(=O)[O-].[Na+].[Na+]` [EDTA-2Na, disodium ethylenediaminetetraacetate], in assay [1] (0.01 to 1.0% of α-cyclodextrin, remarkable at EDTA-2Na at least 0.006%), the “Effect on lowering of antimicrobial activity by α-cyclodextrin (in words)” value is listed as “prevents a lowering of antimicrobial activity”. For the same molecule, the Antimicrobial activity result is “+ (microorganisms died in 6-10 days)” in assay [1] (EDTA-2Na 0.002%, α-cyclodextrin 0.01%); “- (microorganisms died in 11-15 days or over 15 days)” in assay [1] (EDTA-2Na 0.002%, α-cyclodextrin 0.03%); “- (microorganisms died in 11-15 days or over 15 days)” in assay [1] (EDTA-2Na 0.002%, α-cyclodextrin 0.05%); “- (microorganisms died in 11-15 days or over 15 days)” in assay [1] (EDTA-2Na 0.002%, α-cyclodextrin 0.1%); “- (microorganisms died in 11-15 days or over 15 days)” in assay [1] (EDTA-2Na 0.002%, α-cyclodextrin 0.3%); “- (microorganisms died in 11-15 days or over 15 days)” in assay [1] (EDTA-2Na 0.002%, α-cyclodextrin 0.5%). Besides, the Antimicrobial activity entry in assay [1] (EDTA-2Na 0.002%, α-cyclodextrin 1.0%) was “- (microorganisms died in 11-15 days or over 15 days)”; in assay [1] (EDTA-2Na 0.004%, α-cyclodextrin 0.01%) it was “+ (microorganisms died in 6-10 days)”; in assay [1] (EDTA-2Na 0.004%, α-cyclodextrin 0.03%), “- (microorganisms died in 11-15 days or over 15 days)”; in assay [1] (EDTA-2Na 0.004%, α-cyclodextrin 0.05%), “- (microorganisms died in 11-15 days or over 15 days)”; in assay [1] (EDTA-2Na 0.004%, α-cyclodextrin 0.1%), “- (microorganisms died in 11-15 days or over 15 days)”; in assay [1] (EDTA-2Na 0.004%, α-cyclodextrin 0.3%) it was “- (microorganisms died in 11-15 days or over 15 days)”. The Antimicrobial activity entry in assay [1] (EDTA-2Na 0.004%, α-cyclodextrin 0.5%) was “- (microorganisms died in 11-15 days or over 15 days)”; in assay [1] (EDTA-2Na 0.004%, α-cyclodextrin 1.0%), “- (microorganisms died in 11-15 days or over 15 days)”; in assay [1] (EDTA-2Na 0.006%, α-cyclodextrin 0.01%) it was “+ (microorganisms died in 6-10 days)”; in assay [1] (EDTA-2Na 0.006%, α-cyclodextrin 0.03%) it was “+ (microorganisms died in 6-10 days)”; in assay [1] (EDTA-2Na 0.006%, α-cyclodextrin 0.05%) it was “+ (microorganisms died in 6-10 days)”; in assay [1] (EDTA-2Na 0.006%, α-cyclodextrin 0.1%), “+ (microorganisms died in 6-10 days)”. Further, the Antimicrobial activity result in assay [1] (EDTA-2Na 0.006%, α-cyclodextrin 0.3%) is “+ (microorganisms died in 6-10 days)”; in assay [1] (EDTA-2Na 0.006%, α-cyclodextrin 0.5%), “+ (microorganisms died in 6-10 days)”; in assay [1] (EDTA-2Na 0.006%, α-cyclodextrin 1.0%), “+ (microorganisms died in 6-10 days)”; in assay [1] (EDTA-2Na 0.01%, α-cyclodextrin 0.01%) it was “+ (microorganisms died in 6-10 days)”; in assay [1] (EDTA-2Na 0.01%, α-cyclodextrin 0.03%), “+ (microorganisms died in 6-10 days)”; in assay [1] (EDTA-2Na 0.01%, α-cyclodextrin 0.05%), “+ (microorganisms died in 6-10 days)”. The Antimicrobial activity entry in assay [1] (EDTA-2Na 0.01%, α-cyclodextrin 0.1%) is recorded as “+ (microorganisms died in 6-10 days)”; in assay [1] (EDTA-2Na 0.01%, α-cyclodextrin 0.3%) it was “+ (microorganisms died in 6-10 days)”; in assay [1] (EDTA-2Na 0.01%, α-cyclodextrin 0.5%), “+ (microorganisms died in 6-10 days)”; in assay [1] (EDTA-2Na 0.01%, α-cyclodextrin 1.0%) it was “+ (microorganisms died in 6-10 days)”; in assay [1] (EDTA-2Na 0.05%, α-cyclodextrin 0.01%), “+ (microorganisms died in 6-10 days)”; in assay [1] (EDTA-2Na 0.05%, α-cyclodextrin 0.03%), “+ (microorganisms died in 6-10 days)”. Besides, the Antimicrobial activity result is given as “+ (microorganisms died in 6-10 days)” in assay [1] (EDTA-2Na 0.05%, α-cyclodextrin 0.05%); “+ (microorganisms died in 6-10 days)” in assay [1] (EDTA-2Na 0.05%, α-cyclodextrin 0.1%); “+ (microorganisms died in 6-10 days)” in assay [1] (EDTA-2Na 0.05%, α-cyclodextrin 0.3%); “+ (microorganisms died in 6-10 days)” in assay [1] (EDTA-2Na 0.05%, α-cyclodextrin 0.5%); “+ (microorganisms died in 6-10 days)” in assay [1] (EDTA-2Na 0.05%, α-cyclodextrin 1.0%); “+ (microorganisms died in 6-10 days)” in assay [1] (EDTA-2Na 0.1%, α-cyclodextrin 0.01%). Besides, the Antimicrobial activity entry in assay [1] (EDTA-2Na 0.1%, α-cyclodextrin 0.03%) is “+ (microorganisms died in 6-10 days)”; in assay [1] (EDTA-2Na 0.1%, α-cyclodextrin 0.05%), “+ (microorganisms died in 6-10 days)”; in assay [1] (EDTA-2Na 0.1%, α-cyclodextrin 0.1%), “+ (microorganisms died in 6-10 days)”; in assay [1] (EDTA-2Na 0.1%, α-cyclodextrin 0.3%), “+ (microorganisms died in 6-10 days)”; in assay [1] (EDTA-2Na 0.1%, α-cyclodextrin 0.5%), “+ (microorganisms died in 6-10 days)”; in assay [1] (EDTA-2Na 0.1%, α-cyclodextrin 1.0%), “+ (microorganisms died in 6-10 days)”. The Antimicrobial activity result is listed as “+ (microorganisms died in 6-10 days)” in assay [1] (EDTA-2Na 0.3%, α-cyclodextrin 0.01%); “+ (microorganisms died in 6-10 days)” in assay [1] (EDTA-2Na 0.3%, α-cyclodextrin 0.03%); “+ (microorganisms died in 6-10 days)” in assay [1] (EDTA-2Na 0.3%, α-cyclodextrin 0.05%); “+ (microorganisms died in 6-10 days)” in assay [1] (EDTA-2Na 0.3%, α-cyclodextrin 0.1%); “+ (microorganisms died in 6-10 days)” in assay [1] (EDTA-2Na 0.3%, α-cyclodextrin 0.3%); “+ (microorganisms died in 6-10 days)” in assay [1] (EDTA-2Na 0.3%, α-cyclodextrin 0.5%). The Antimicrobial activity entry in assay [1] (EDTA-2Na 0.3%, α-cyclodextrin 1.0%) is given as “+ (microorganisms died in 6-10 days)”.

Take `OB(O)O` [Boric acid]: the Antimicrobial activity entry in assay [1] (boric acid 0.05%, borax 0%, about pH 7.2) is recorded as “+ (microorganisms died in 6-10 days)”; in assay [1] (boric acid 0.1%, borax 0%, about pH 7.2), “++ (microorganisms died within 5 days)”; in assay [1] (boric acid 0.2%, borax 0%, about pH 7.2), “++ (microorganisms died within 5 days)”; in assay [1] (boric acid 0.4%, borax 0%, about pH 7.2), “++ (microorganisms died within 5 days)”; in assay [1] (boric acid 0.6%, borax 0%, about pH 7.2), “++ (microorganisms died within 5 days)”; in assay [1] (boric acid 0.8%, borax 0%, about pH 7.2), “++ (microorganisms died within 5 days)”. Also, the Antimicrobial activity result in assay [1] (boric acid 1.0%, borax 0%, about pH 7.2) is “++ (microorganisms died within 5 days)”. The “Enhancement of antimicrobial activity (in words)” value in assay [1] is “effective for enhancing the antimicrobial activity”.

As for “benzalkonium chloride [reference compound]”, the Antimicrobial activity result in assay [1] (boric acid 0%, borax 0%, EDTA-2Na 0.006%, α-cyclodextrin 0.03%, about pH 7.2) is reported as “+ (microorganisms died in 6-10 days)”. For the same molecule, the Inhibition of adsorption is on record as 65% in assay [2], 65% in assay [3] and 60% in assay [4].

In the case of `O=BOB(O)OB(O)OB=O` [Borax], the Antimicrobial activity result was “+ (microorganisms died in 6-10 days)” in assay [1] (boric acid 0%, borax 0.01%, about pH 7.2); “+ (microorganisms died in 6-10 days)” in assay [1] (boric acid 0%, borax 0.02%, about pH 7.2); “+ (microorganisms died in 6-10 days)” in assay [1] (boric acid 0%, borax 0.04%, about pH 7.2); “+ (microorganisms died in 6-10 days)” in assay [1] (boric acid 0%, borax 0.06%, about pH 7.2); “+ (microorganisms died in 6-10 days)” in assay [1] (boric acid 0%, borax 0.08%, about pH 7.2); “+ (microorganisms died in 6-10 days)” in assay [1] (boric acid 0%, borax 0.1%, about pH 7.2). For the same molecule, in assay [1] (boric acid 0%, borax 0.15%, about pH 7.2), the Antimicrobial activity entry is “++ (microorganisms died within 5 days)”. Moreover, the “Enhancement of antimicrobial activity (in words)” value in assay [1] is “effective for enhancing the antimicrobial activity”.

These data come from patent US5998488A, “Ophthalmic composition” (Lion Corporation, priority 1994, dated 1999).
